Test results: ChEMBL document CHEMBL1201862, “PubChem BioAssay data set” (2004)
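Dose response: 5 concentrations. Exposure: 48 h. Format: 96-well plates. Endpoint: linear interpolation; highest concentration if not reached. GI50: concentration for 50% inhibition of growth.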 The source made the active and inactive calls. Rule as the data show it: active = GI50 up to about 1.1 µM and inactive = higher.

Tests used:
Test in all cases: NCI tumour cell line growth inhibition, 48 h
ACHN = system: ACHN
COLO 205 = system: COLO 205
HCC 2998 = system: HCC 2998
HCT-116 = system: HCT-116
K562 = system: K562
LOX IMVI = system: LOX IMVI
Malme-3M = system: Malme-3M
NCI-H23 = system: NCI-H23
NCI-H460 = system: NCI-H460
NCI/ADR-RES = system: NCI/ADR-RES
OVCAR-4 = system: OVCAR-4
SF-539 = system: SF-539
SK-MEL-5 = system: SK-MEL-5
SNB-19 = system: SNB-19
SR = system: SR
SW-620 = system: SW-620
TK-10 = system: TK-10
U-251 = system: U-251
UACC-257 = system: UACC-257
UO-31 = system: UO-31

| SMILES | GI50 (ACHN) | GI50 (COLO 205) | GI50 (HCC 2998) | GI50 (HCT-116) | GI50 (K562) | GI50 (LOX IMVI) | GI50 (Malme-3M) | GI50 (NCI-H23) | GI50 (NCI-H460) | GI50 (NCI/ADR-RES) | GI50 (OVCAR-4) | GI50 (SF-539) | GI50 (SK-MEL-5) | GI50 (SNB-19) | GI50 (SR) | GI50 (SW-620) | GI50 (TK-10) | GI50 (U-251) | GI50 (UACC-257) | GI50 (UO-31) |
| --- | --- | --- | --- | --- | --- | --- | --- | --- | --- | --- | --- | --- | --- | --- | --- | --- | --- | --- | --- | --- |
| Cc1cc(C)c(S(=O)(=O)N(CCCCN)OCCCN)c(C)c1 | 22500 nM (inactive) | 9040 nM (inactive) | 2280 nM (inactive) | 16700 nM (inactive) | 13900 nM (inactive) | 15200 nM (inactive) | 20900 nM (inactive) | 26900 nM (inactive) | 19000 nM (inactive) | 20700 nM (inactive) | 17500 nM (inactive) | 21800 nM (inactive) | 23700 nM (inactive) | 19600 nM (inactive) | 9590 nM (inactive) | 17900 nM (inactive) | 18000 nM (inactive) | 15400 nM (inactive) | 16200 nM (inactive) | 17500 nM (inactive) |
| O=[N+]([O-])c1cccc2nc3ccccc3c(NCCNCCO)c12 | 8.75 nM (active) | 1.76 nM (active) | 2.17 nM (active) | 19.7 nM (active) | 4.27 nM (active) | 4.13 nM (active) | 8.77 nM (active) | 1.46 nM (active) | 1.84 nM (active) | 248 nM (active) | 3.35 nM (active) | 32.6 nM (active) | 1.53 nM (active) | 34.9 nM (active) | 1.12 nM (active) | 8.99 nM (active) | 38.5 nM (active) | 11.8 nM (active) | 15.4 nM (active) | 70 nM (active) |
